Results published in patent US11420962B2, “Indene derivatives useful in treating pain and inflammation” (TARO PHARMACEUTICALS INC., priority 2018, dated 2022).
pEC50: −log10 of the molar value.

What was measured:
Rat DRG = test: Rat dorsal root ganglion excitability response (EFS, Ca2+ transients); type: cell-based; details: Rattus norvegicus; Table 3; electrical field stimulation, Ca5 indicator; read-out: Scoring (EC50, Rat DRG excitability)
Description: Dorsal root ganglions (DRGs) were dissected from adult rats. The tissue was processed, and cells were seeded into call culture plates (48 center wells of one quadrant in 384-well plates) and cultured for 2 days prior to Electrical field stimulation (EFS). To visualize the neuronal excitability response, intracellular Ca^+2 transients were monitored using the Ca^+2 indicator, Ca5. Ca5 was added to the cultures 1 h prior to EFS. Representative test compounds of the invention (i.e., test compounds) and reference compound, tetracaine, were added in concentration-response format encompassing six concentrations, performed in duplicate. The highest concentration tested was typically 30 μM with 1 in 3 dilutions generating the subsequent concentrations.
Effects on DRG excitability by the test compounds and standard were evaluated using four EFS protocols as disclosed in Table 2.
Experimental results were performed using two separate sets of plates using separate test compound and standard dilutions, to provide n=2. In the first set of experiments, compounds were added 24 h prior to EFS to increase the possibility to also detect more long-term compound effects. In the second set of experiments the compounds were added directly prior to EFS. Excitability response to EFS was analyzed as the average fluorescence ratio (peak/baseline) change per well. All plates were evaluated using high content imaging equipment post-EFS, imaging the Ca5 background staining to detect any possible compound-related toxic effects.
Average response by the standard compound, tetracaine, was 4.05 μM.

[1] = Metabolism by human liver microsomes; type: in vitro ADME; details: in the presence of NADPH; for Scoring (% of drug remaining after 60 minutes, PDR60): Table 8, 10 µM, 1 mg/mL protein
Description: Representative compounds of the invention (i.e., test compounds) and the positive control, 7-ethoxycoumarin, were prepared as stock solutions at 10 mM in DMSO and eventually diluted to 10 μM in the test plate, with an appropriate amount of acetonitrle and tris HCl buffer. Final DMSO and acetonitrile concentrations were […] and 0.5% respectively. NADPH was prepared in tris HCl buffer to a stock of 10 mM. A frozen aliquot of live microsomes was retrieved from the freezer (−80° C.) and thawed by placing the tube on wet ice. After thawing, the tubes were gently mixed and the required amount, transferred to tris HCl buffer. Test compounds or positive control were pre-incubated, separately, for 10 minutes, with liver microsomes (1 mg/mL protein), at 37° C., in 100 mM Tris HCl at pH 7.5. After preincubation the reaction was started by adding 1 mM NADPH (pre-equilibrated to […]) and the reaction allowed to proceed for 60 minutes. At 60 minutes, a 50 μL aliquot was removed and quenched with 200 uL of acetonitrile containing a mixture of internal standards (Tolbutamide (500 ng/mL) and Telmistartan (500 ng/mL)) and vortexed then centrifuged at 4000 rmp for 10 minutes (Eppendorf 5810R). The supernatant was transferred to a 96 well plate for LC-MS/MS analysis.
An LC-MS/MS method was devised for the test compounds and the control, using a AB Sciex API 4000 system coupled to a NEXAR™ UHPLC (Shimadzu) system. Analytes were separated on a Phenomenex Kinetex C18 column (50×2.1 mm, 5 μm) using a gradient that was appropriate for each compound, at a flow rate of 1 ml/minute, utilizing a mobile phase of 0.1% formic acid in MILLI-Q™ water (A) and 0.1% formic acid in acetonitrile (B). The MS instrument was operated in positive mode (ESI+)/negative (ESI−). The multiple reaction monitoring (MRM) transition for test and control compounds was used for the LC-MS/MS analysis. MRM transitions for control compound 7-ethoxycoumarinm were Quadropole 1: 191.0, Quadropole 3: 163.0, dwell time: 75 msec, using curtain gas settings of 5 V, ion-spray voltage of 5500 V, temperature of 50° C. and gas settings for nebulizer and auxiliary set to 30 and 40 psi, respectively. The interface heater was kept on. Entrance potential and collision cell exit potential were varied to tune for a specific compound.
Using a suitable LC-MS/MS method, the percentage of drug remaining at 60 minutes ([…]) was assessed by comparing the average analyte to internal standard area ratio at 60 minutes to the average analyte to internal standard area ratio at 0 time control, as a percentage, from a 5 to 10 μL sample injection.
According to the above assay, the representative compounds listed in Table 8 below were active in the Human liver microsome assay at […] and the % of drug remaining after 60 minutes (PDR60), in the presence of NADPH, was assessed by LC-MS/MS. Average PDR60 for the standard compound, 7-ethoxycoumarin was <=65% in the presence of NADPH. Scoring for the test compounds, in the presence of NADPH, was as follows: “A” represents a PDR^60 of 81 to 100%, “B” represents a PDR^60 of 61 to 80%, “C” represents a PDR^60 of 31 to 60% and “D” represents a PDR^60 of 0 to 30%.

Compound	Scoring (% of drug remaining after 60 minutes, PDR60) [1]	Average PDR60 [1]	pEC50 (Rat DRG)
C=C1CC[C@H]2[C@H](CN)[C@@H]([C@@]3(C)Cc4cn(C(C)(C)C)nc4C[C@@H]3CO)CC[C@]12C [Ia-13, ((5R,6S)-5-((3aS,4R,5S,7aS)-4-(aminomethyl)-7a-methyl-1-methyleneoctahydro-1H-inden-5-yl)-2-(tert-butyl)-5-methyl-4,5,6,7-tetrahydro-2H-indazol-6-yl)methanol]	A (a PDR^60 of 81 to 100%)	–	5.22 to 5.70
C[C@H]1CC[C@H]2[C@H](CO)[C@@H]([C@@]3(C)Cc4cn[nH]c4C[C@@H]3CO)CC[C@]12C [Ia-5, ((5R,6S)-5-((1S,3aS,4S,5S,7aR)-4-(hydroxymethyl)-1,7a-dimethyloctahydro-1H-inden-5-yl)-5-methyl-4,5,6,7-tetrahydro-1H-indazol-6-yl)methanol]	D (a PDR^60 of 0 to 30%)	–	–
CCOc1ccc2ccc(=O)oc2c1 [7-ethoxycoumarin, reference compound]	–	<= 65%	–
C=C1CC[C@H]2[C@H](CN)[C@@H]([C@@]3(C)Cc4cnn(C5CCCCC5)c4C[C@@H]3CO)CC[C@]12C [Ia-16, ((5R,6S)-5-((3aS,4R,5S,7aS)-4-(aminomethyl)-7a-methyl-1-methyleneoctahydro-1H-inden-5-yl)-1-cyclohexyl-5-methyl-4,5,6,7-tetrahydro-1H-indazol-6-yl)methanol]	B (a PDR^60 of 61 to 80%)	–	5.22 to 5.70

More lines, main results first:

Scoring (% of drug remaining after 60 minutes, PDR60) [1]	Average PDR60 [1]	Compound	pEC50 (Rat DRG)
A (a PDR^60 of 81 to 100%)	–	CC=C1CC[C@H]2[C@H](CN)[C@@H]([C@@]3(C)Cc4cn[nH]c4C[C@@H]3CO)CC[C@]12C [Ia-65, ((5R,6S)-5-((3aS,4R,5S,7aS)-4-(aminomethyl)-1-ethylidene-7a-methyloctahydro-1H-inden-5-yl)-5-methyl-4,5,6,7-tetrahydro-1H-indazol-6-yl)methanol]	4.82 to 5.22
A (a PDR^60 of 81 to 100%)	–	C[C@H]1CC[C@H]2[C@H](CN)[C@@H]([C@@]3(C)Cc4cn(C(C)(C)C)nc4C[C@@H]3CO)CC[C@]12C [Ia-41, ((5R,6S)-5-((1S,3aS,4S,5S,7aR)-4-(aminomethyl)-1,7a-dimethyloctahydro-1H-inden-5-yl)-2-(tert-butyl)-5-methyl-4,5,6,7-tetrahydro-2H-indazol-6-yl)methanol]	> 5.70
A (a PDR^60 of 81 to 100%)	–	C[C@]1([C@H]2CC[C@]3(C)C=CC[C@H]3[C@@H]2CN)Cc2cn[nH]c2C[C@@H]1CO [Ia-28, ((5R,6S)-5-((3aR,6S,7R,7aS)-7-(aminomethyl)-3a-methyl-3a,4,5,6,7,7a-hexahydro-1H-inden-6-yl)-5-methyl-4,5,6,7-tetrahydro-1H-indazol-6-yl)methanol]	–
B (a PDR^60 of 61 to 80%)	–	C=C1CC[C@H]2[C@H](CN)[C@@H]([C@@]3(C)Cc4nccnc4C[C@@H]3CO)CC[C@]12C [Ib-2, ((6S,7R)-7-((3aS,4R,5S,7aS)-4-(aminomethyl)-7a-methyl-1-methyleneoctahydro-1H-inden-5-yl)-7-methyl-5,6,7,8-tetrahydroquinoxalin-6-yl)methanol]	< 4.82
A (a PDR^60 of 81 to 100%)	–	C=C1CC[C@H]2[C@H](CN)[C@@H]([C@@]3(C)Cc4cn[nH]c4C[C@@H]3CN)CC[C@]12C [Ia-58, ((3aS,4R,5S,7aS)-5-((5R,6S)-6-(aminomethyl)-5-methyl-4,5,6,7-tetrahydro-1H-indazol-5-yl)-7a-methyl-1-methyleneoctahydro-1H-inden-4-yl)methanamine]	–
A (a PDR^60 of 81 to 100%)	–	CC(C)CCC[C@@H](C)[C@H]1CC[C@H]2[C@H](CN)[C@@H]([C@@]3(C)Cc4cn[nH]c4C[C@@H]3CN)CC[C@]12C [Ia-57, ((1R,3aS,4S,5S,7aR)-5-((5R,6S)-6-(aminomethyl)-5-methyl-4,5,6,7-tetrahydro-1H-indazol-5-yl)-7a-methyl-1-((R)-6-methylheptan-2-yl)octahydro-1H-inden-4-yl)methanamine]	–
